# Results taken from ChEMBL document CHEMBL1201862, “PubChem BioAssay data set” (2004).
#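 Tested at 5 concentrations; 48 h exposure; 96-well plates; endpoints linearly interpolated, else capped at highest concentration. GI50 marks 50% less growth.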 Activity calls are given as the source filed them. No stated cut-off is given here; in the data, active = GI50 up to about 1.1 µM and inactive = higher.
# Experiments:
# Assay in all cases: inhibition of tumour cell growth, NCI panel, 48 h
# [1] = test system: DLD-1
# [2] = test system: DMS-273
# [3] = test system: HOP-18
# [4] = test system: LXFL 529
# [5] = test system: M19-MEL
# [6] = test system: RXF 631
# [7] = test system: SNB-78
# [8] = test system: XF498
SMILES,GI50 [1],GI50 [2],GI50 [3],GI50 [4],GI50 [5],GI50 [6],GI50 [7],GI50 [8]
C[C@]12CCC3[C@@H](CC[C@@H]4c5nonc5CC[C@]34C)C1CC[C@@H]2O (some centres undefined),26.3 µM (inactive),23.9 µM (inactive),36.4 µM (inactive),37 µM (inactive),48 µM (inactive),33.1 µM (inactive),38.6 µM (inactive),20.3 µM (inactive)
C[C@@H]1C[C@@H]2C(=O)N(c3ccccc3)C(=O)[C@@H]2c2[nH]c3ccc(Br)cc3c21,44.2 µM (inactive),> 100 µM (inactive),24.1 µM (inactive),37.6 µM (inactive),70.8 µM (inactive),28.8 µM (inactive),25.1 µM (inactive),26.1 µM (inactive)
C=CC1(C(=O)O)CCC(C(C)(C)C)CC1 (centres undefined),> 100 µM (inactive),> 100 µM (inactive),> 100 µM (inactive),> 100 µM (inactive),> 100 µM (inactive),> 100 µM (inactive),> 100 µM (inactive),> 100 µM (inactive)
CCN(CC)CC(C)(C)C(=O)/C=C/c1cccc(/C=C/C(=O)C(C)(C)CN(CC)CC)c1,0.237 µM (active),0.476 µM (active),1.51 µM (inactive),0.331 µM (active),0.959 µM (active),1.09 µM (active),2.21 µM (inactive),0.409 µM (active)
NC(=O)/C(=N\NC(=O)C[n+]1ccccc1)C1NC(=O)NC1=O (centres undefined),> 100 µM (inactive),> 100 µM (inactive),> 100 µM (inactive),> 100 µM (inactive),> 100 µM (inactive),> 100 µM (inactive),> 100 µM (inactive),> 100 µM (inactive)
COc1cc2c(Cc3cc(OCc4ccccc4)ccc3N)nccc2c(OC)c1OC,> 10 µM (inactive),> 10 µM (inactive),> 10 µM (inactive),> 10 µM (inactive),> 10 µM (inactive),6.55 µM (inactive),> 10 µM (inactive),> 10 µM (inactive)
N#CC(c1ccccc1)c1nc2ccc(N)cc2[n+]([O-])c1C(C#N)c1ccccc1 (centres undefined),43.6 µM (inactive),45.9 µM (inactive),> 100 µM (inactive),51.1 µM (inactive),55.1 µM (inactive),86.9 µM (inactive),> 100 µM (inactive),48.5 µM (inactive)
COC(=O)C(CCCCCCCC(C(=O)OC)C1=Nc2nnc(N)n2C1=O)C1=Nc2nnc(N)n2C1=O (centres undefined),> 100 µM (inactive),> 100 µM (inactive),> 100 µM (inactive),> 100 µM (inactive),26.1 µM (inactive),> 100 µM (inactive),> 100 µM (inactive),> 100 µM (inactive)
